This note sets out measurements from PMC5750218, “Protein-inspired antibiotics active against vancomycin- and daptomycin-resistant bacteria” (Nature Communications, 2018).

Data set [1] is described as follows: Haemolysis assay. It is filed as cell-based. Conditions: human, read-out: % Human Whole Blood Haemolysis.
For data set [2], the system named is Bacillus subtilis ATCC 6633. The data set is described as follows: microbe, parasite or virus in culture. Type of data set: cell-based. The following applies: for MIC: Bacillus subtilis; for Molar excess of Ac2Kaa ligand required to antagonise antibacterial activity: [ligand]/[antibiotic], B. subtilis ATCC 6633, 24 h.
Data set [3] relates to bioluminescent MSSA Xen-29. The data set is described as follows: Bioluminescence IP infection in vivo model (neutropenic mice). The following applies: SC: 200 mg kg^−1 vancomycin, 50 mg kg^−1 daptomycin, 25 mg kg^−1 19 or 24. Further details: species or system Staphylococcus aureus. The method, then: Performed at the University of Queensland, following similar previous literature procedures. Xen-29 (Caliper LifeSciences), a methicillin-sensitive S. aureus (MSSA) strain which contains a copy of the modified luxABCDE operon of Photorhabdus luminescens was taken from the storage at −80 °C and freshly seeded on agar plates for overnight growth at 37 °C. From the overnight culture preparation, a single colony (tested for bioluminescence) was diluted into 10 mL of MHB and incubated overnight at 37 °C. A mid log-phase subculture was obtained by adding 100 μL of overnight subculture in 10 mL MHB and incubated for a further 2–3 h. Finally, the OD600 value of the bacterial suspension was determined and the colony forming units per millilitre (CFU mL^−1) was extrapolated. The suspension was then diluted out accordingly in order to achieve a 2.5 × 10^8 CFU mL^−1 solution (2.5 × 10^7 CFU in 100 μL). […] Mice were monitored for signs of normal behaviour (i.e. grooming, eating, drinking, sleeping and alertness) during and following dosing. […] Xen-29 colonies were then counted, with the CFU mL^−1 blood calculated. […] Luminescent images were quantified with the IVIS Living Image software where the total flux (number of photons/second) was calculated by a user defined region of interest (ROI) covering the infection sites.

Data set [4] is described as follows: in vitro. The following applies: human, 50% human plasma (pooled, sodium heparin) in PBS, pH 7.4.
Description: Briefly, test compounds (20 μM) were prepared from a 0.2 mM H2O stock solution (40 μL in 400 μL assay volume) except eucatropine, which was 300 μg mL^−1 in 100% DMSO (10 μL in 400 μL assay volume equivalent to 23 μM). The precipitating solution was prepared by adding 5 μL of 10 mM carbutamide in DMSO to 100 mL acetonitrile (final concentration: 135.5 ng mL^−1 or 0.5 μM carbutamide). The human plasma sample (pooled normal human plasma sodium heparin anticoagulant, 2 µL, Cat No.: [sequence], BioReclamation) and phosphate-buffer saline (PBS, pH 7.4 isotonic) were pre-heated at 37 °C for 30 min. 40 μL of test compounds (0.2 mM) were added to protein-low binding Eppendorf tubes, 160 μL of buffer was added, and the mixture was vortexed. For eucatropine, 10 μL of eucatropine (300 μg mL^−1) was added to a protein-low binding Eppendorf tube, 190 μL of buffer was added, and the mixture was vortexed. In each case, 200 μL of plasma was added and the resultant mixture vortexed. For the initial time point (reaction time t = 0 h), 50 μL of sample was immediately transferred into a protein-low binding Eppendorf tube and quenched with 150 μL of the ice-cold precipitating solution, followed by vortexing and subsequent storage at 4 °C. For the remaining time points, the plasma solution was incubated and shaken (150 rpm) at 37 °C. 50 μL aliquots were collected at time points of 0, 1, 3, 6 and 24 h and quenched with 150 μL the ice-cold precipitating solution. All samples were placed in a 4 °C fridge for 30 min then centrifuged at 14,000 × g for 8 min at 4 °C. The supernatant (100 μL) was transferred to a glass vial insert and stored at 4 °C until LC-MS/MS analysis. The percentage of test compounds remaining at the individual time points relative to sample at time point 0 h were reported.

SMILES strings stand for the structures. Converted amounts (≈) assume the structure as drawn. Read-outs that look alike come from different tables or passages of the source.

For the molecule `CN[C@H](CC(C)C)C(=O)N[C@H]1C(=O)N[C@@H](CC(N)=O)C(=O)N[C@H]2C(=O)N[C@H]3C(=O)N[C@H](C(=O)N[C@H](C(=O)O)c4cc(O)cc(O)c4-c4cc3ccc4O)[C@H](O)c3ccc(c(Cl)c3)Oc3cc2cc(c3O[C@@H]2O[C@H](CO)[C@@H](O)[C@H](O)[C@H]2O[C@H]2C[C@](C)(N)[C@H](O)[C@H](C)O2)Oc2ccc(cc2Cl)[C@H]1O` [Compound 1, Vancomycin], the hemolysis at 3 h, 25 µg mL-1 in data set [1] (25 µg mL-1) was determined as 0.1%. Besides, the hemolysis at 3 h, 50 µg mL-1 in data set [1] (50 µg mL-1) stood at 0.4%. Also, the hemolysis at 3 h, 100 µg mL-1 in data set [1] (100 µg mL-1) was 0.3%. The hemolysis at 3 h, 200 µg mL-1 in data set [1] (200 µg mL-1) came out at 0.8%. The hemolysis at 3 h, 400 µg mL-1 in data set [1] (400 µg mL-1) came out at 0.8%. Besides, in data set [1] (800 µg mL-1), the hemolysis at 3 h, 800 µg mL-1 is 0.8%. The hemolysis at 3 h, 1600 µg mL-1 in data set [1] (1600 µg mL-1) stood at 1.5%. In data set [2] (ATCC6633), this molecule returned an MIC of 0.25 µg/mL (≈ 0.173 µM). Further, in data set [2] (ATCC6633, read-out: Ac2Kaa concentration required to neutralise MIC activity), the MIC was determined as 6.25 µg/mL (≈ 4.31 µM). Also, in data set [2], the “Molar excess of Ac2Kaa ligand required to antagonise antibacterial activity” value stood at 100. In addition, in data set [2] (listed as Vancomycin 1), the “Molar excess of Ac2Kaa ligand required to antagonise antibacterial activity” value was 96. Also, in data set [3], the “Change in bioluminescence signal (total flux) after inoculation” value is recorded as “progressive reduction in the bioluminescence signal”. For the same molecule, in data set [4], the amount remaining (in general, the share of the starting amount still present when the sample was taken) at 1 h, 20 µM is 100%; the amount remaining at 3 h, 20 µM was 87%; the amount remaining at 6 h, 20 µM is 91%; the fraction remaining at 24 h, 20 µM came to 63%.
